Experimental findings from PMC11841054 (Journal of Bacteriology, 2025) are described below.

One assay has as its target T1, GlnA3Mt (Mycobacterium tuberculosis, UniProt O07752).
T1 construct: gene glnA3

The next assay addresses T2, GlnA3Sc (Streptomyces coelicolor, UniProt Q9KZC7).
T2 construct: gene glnA3; His-tagged (pYT/his-glnA3, pYT9 derivative) from E. coli BL21
Briefly: GS activity assay, phosphate release. The assay is classed as biochemical. Conditions: 50 mM substrate; glutamate and ATP co-substrates.

The structures appear in SMILES notation.

T2 sequence (Q9KZC7 whole entry): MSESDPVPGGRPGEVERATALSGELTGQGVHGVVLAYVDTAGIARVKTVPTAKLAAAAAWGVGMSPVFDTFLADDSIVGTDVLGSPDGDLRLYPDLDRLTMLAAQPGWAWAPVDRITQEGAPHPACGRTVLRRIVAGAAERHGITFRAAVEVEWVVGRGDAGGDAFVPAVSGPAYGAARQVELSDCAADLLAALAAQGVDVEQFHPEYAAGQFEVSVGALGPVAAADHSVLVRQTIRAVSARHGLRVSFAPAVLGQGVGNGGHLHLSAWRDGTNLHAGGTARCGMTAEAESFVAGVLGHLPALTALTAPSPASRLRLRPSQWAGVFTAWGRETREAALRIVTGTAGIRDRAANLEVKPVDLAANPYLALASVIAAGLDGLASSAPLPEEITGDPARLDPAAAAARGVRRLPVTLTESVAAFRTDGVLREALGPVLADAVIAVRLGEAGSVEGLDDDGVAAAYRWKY
T1 sequence (O07752 1-450): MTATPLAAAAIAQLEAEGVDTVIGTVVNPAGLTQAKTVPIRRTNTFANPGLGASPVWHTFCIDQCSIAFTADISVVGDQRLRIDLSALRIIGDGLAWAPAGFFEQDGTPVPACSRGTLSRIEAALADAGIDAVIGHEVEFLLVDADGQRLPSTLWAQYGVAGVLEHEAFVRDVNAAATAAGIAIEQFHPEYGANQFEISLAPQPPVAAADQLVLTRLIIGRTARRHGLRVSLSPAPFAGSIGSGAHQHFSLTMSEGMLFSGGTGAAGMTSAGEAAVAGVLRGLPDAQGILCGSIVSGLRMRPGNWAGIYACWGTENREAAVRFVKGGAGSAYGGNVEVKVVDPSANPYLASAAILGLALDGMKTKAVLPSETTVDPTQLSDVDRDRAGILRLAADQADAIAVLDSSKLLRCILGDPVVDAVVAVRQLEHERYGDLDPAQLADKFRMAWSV

Take `NCCCCNCCCN` [spermidine]: the “GS activity assay, phosphate release; HPLC/ESI-MS of gamma-glutamylspermidine” value at GlnA3Mt was “the highest activity was observed with spermine and spermidine”. The “GS activity assay, phosphate release” value at GlnA3Sc is listed as “possesses the highest turnover rate when using spermine or spermidine as substrates”.
On to `NCCCNCCCCNCCCN` [spermine], for which the “GS activity assay, phosphate release” value at GlnA3Sc is given as “possesses the highest turnover rate when using spermine or spermidine as substrates”.
